Experiments:
[1] = target: human Cereblon WT GST-tagged protein (Homo sapiens (Human), UniProt Q96SW2); test: CRBN-binding affinity, HTRF (CEREBLON BINDING kit, CISBIO); details: HTRF inhibitory activity
Outline: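 HTRF competition format: test compound displaces Thalidomide-Red from GST-tagged human Cereblon WT, detected with a Eu-labelled anti-GST antibody. Percent CRBN binding inhibition was derived from the 620 nm signal, normalized to solvent-control and protein-free blank wells.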

GSPT1 = GSPT1 (Homo sapiens (Human), UniProt P15170+Q96SW2); test: Western blot, substrate protein expression in hPBMC: GSPT1; format: cell-based; details: for substrate protein remaining % GSPT1: hPBMC, compound 500 nM, 24 hours, Western blot; for concentration at which GSPT1 protein was clearly/significantly degraded (Western blot, FIG. 1): hPBMCs
GSPT1, sequence (P15170 whole entry): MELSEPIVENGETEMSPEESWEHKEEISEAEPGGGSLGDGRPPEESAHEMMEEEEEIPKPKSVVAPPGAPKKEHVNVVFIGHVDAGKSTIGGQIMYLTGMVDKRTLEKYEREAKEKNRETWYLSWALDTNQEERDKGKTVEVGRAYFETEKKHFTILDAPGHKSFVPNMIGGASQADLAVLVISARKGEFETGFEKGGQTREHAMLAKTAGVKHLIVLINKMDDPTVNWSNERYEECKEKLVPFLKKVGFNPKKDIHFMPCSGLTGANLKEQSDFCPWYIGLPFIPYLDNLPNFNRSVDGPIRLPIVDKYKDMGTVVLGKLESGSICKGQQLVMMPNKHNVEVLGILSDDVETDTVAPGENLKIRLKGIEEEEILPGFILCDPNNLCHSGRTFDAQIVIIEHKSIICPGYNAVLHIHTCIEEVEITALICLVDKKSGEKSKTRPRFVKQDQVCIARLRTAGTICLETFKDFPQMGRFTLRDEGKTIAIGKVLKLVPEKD
GSPT1, sequence (Q96SW2 whole entry): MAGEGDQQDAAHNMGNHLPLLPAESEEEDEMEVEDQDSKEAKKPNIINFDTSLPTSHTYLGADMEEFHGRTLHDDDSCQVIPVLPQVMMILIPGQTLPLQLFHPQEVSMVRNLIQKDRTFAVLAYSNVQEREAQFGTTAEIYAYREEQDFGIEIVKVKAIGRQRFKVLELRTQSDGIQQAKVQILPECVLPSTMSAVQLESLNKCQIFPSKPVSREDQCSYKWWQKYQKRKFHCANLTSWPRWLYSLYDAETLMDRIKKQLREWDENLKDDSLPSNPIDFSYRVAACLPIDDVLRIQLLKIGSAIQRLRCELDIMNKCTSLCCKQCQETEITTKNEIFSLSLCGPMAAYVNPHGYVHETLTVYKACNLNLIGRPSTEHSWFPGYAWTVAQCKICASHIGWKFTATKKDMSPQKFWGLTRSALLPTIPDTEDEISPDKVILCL
GSPT1, sequence (Q16531 whole entry partner): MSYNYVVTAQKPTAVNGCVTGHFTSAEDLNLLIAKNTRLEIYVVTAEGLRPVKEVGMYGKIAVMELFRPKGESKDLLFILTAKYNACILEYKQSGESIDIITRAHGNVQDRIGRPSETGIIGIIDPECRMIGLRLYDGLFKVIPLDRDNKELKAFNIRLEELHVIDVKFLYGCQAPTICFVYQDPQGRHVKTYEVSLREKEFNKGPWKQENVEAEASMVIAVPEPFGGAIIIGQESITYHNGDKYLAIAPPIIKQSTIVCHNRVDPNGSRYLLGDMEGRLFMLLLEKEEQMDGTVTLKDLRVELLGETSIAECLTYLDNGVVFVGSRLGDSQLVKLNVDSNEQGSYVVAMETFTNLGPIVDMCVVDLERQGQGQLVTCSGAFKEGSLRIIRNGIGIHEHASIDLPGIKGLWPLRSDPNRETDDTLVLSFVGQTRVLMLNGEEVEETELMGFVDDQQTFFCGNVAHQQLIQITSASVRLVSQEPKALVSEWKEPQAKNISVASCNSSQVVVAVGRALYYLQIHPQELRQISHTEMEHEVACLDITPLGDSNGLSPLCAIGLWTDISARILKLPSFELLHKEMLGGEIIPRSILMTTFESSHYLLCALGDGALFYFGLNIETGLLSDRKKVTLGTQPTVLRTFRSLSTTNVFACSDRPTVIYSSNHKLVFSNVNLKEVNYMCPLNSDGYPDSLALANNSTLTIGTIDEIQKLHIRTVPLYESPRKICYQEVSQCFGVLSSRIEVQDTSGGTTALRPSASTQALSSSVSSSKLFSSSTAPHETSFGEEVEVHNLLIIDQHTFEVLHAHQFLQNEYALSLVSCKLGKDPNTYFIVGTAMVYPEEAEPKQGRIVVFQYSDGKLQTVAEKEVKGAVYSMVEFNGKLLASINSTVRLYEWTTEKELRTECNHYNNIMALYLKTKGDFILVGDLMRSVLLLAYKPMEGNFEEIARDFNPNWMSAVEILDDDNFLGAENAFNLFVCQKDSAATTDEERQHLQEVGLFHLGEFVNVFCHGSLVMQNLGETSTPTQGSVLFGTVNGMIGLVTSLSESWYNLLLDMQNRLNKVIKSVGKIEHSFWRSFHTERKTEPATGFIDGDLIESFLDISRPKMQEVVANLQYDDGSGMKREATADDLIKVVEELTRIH
Outline: (§1)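 hPBMC, 1×10^6 cells/mL, 24 h compound exposure; RIPA lysis, BCA protein assay, SDS-PAGE, NC membrane immunoblot. Densitometry vs internal control → % protein remaining; degradation % = 100% − remaining; DC50 = conc. at 50% of DMSO band signal.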

IKZF3 = IKZF3 (Homo sapiens (Human), UniProt Q96SW2+Q9UKT9); test: Western blot, substrate protein expression in hPBMC: IKZF3; format: cell-based; details: for substrate protein remaining % IKZF3: hPBMC, compound 500 nM, 24 hours, Western blot; for concentration at which IKZF3 protein was significantly degraded (Western blot, FIG. 1): hPBMCs
IKZF3, sequence (Q9UKT9 whole entry): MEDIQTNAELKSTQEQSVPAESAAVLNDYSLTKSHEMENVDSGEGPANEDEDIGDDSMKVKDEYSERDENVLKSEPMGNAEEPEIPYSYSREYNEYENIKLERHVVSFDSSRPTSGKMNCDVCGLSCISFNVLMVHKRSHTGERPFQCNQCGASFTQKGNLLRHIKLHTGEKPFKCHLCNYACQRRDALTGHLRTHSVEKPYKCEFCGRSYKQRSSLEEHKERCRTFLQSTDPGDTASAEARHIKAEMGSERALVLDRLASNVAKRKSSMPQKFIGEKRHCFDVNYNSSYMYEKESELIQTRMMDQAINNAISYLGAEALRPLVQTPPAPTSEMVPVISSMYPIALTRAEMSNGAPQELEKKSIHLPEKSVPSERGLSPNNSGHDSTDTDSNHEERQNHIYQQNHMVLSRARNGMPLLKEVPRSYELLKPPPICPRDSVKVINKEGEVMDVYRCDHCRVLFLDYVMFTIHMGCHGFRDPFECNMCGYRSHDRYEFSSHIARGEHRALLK
IKZF3, sequence (Q96SW2 whole entry): as the sequence (Q96SW2 whole entry) above
IKZF3, sequence (Q16531 whole entry partner): as the sequence (Q16531 whole entry partner) above
Outline: as §1

[2] = test system: H146 cells (human small cell lung carcinoma cells); test: Tumor cell proliferation inhibition, CCK-8; format: cell-based; details: NCI-H146, H146 cells, CCK-8, read-out: inhibitory activity (IC50, nM) H146
Method: (§2) The tumor cells used herein were cultured in a cell culture medium listed in table 2 at 37° C. in an incubator with 5% CO2. Prior to experimentation, all cells used were correctly identified by STR profiling, and tested negative for mycoplasma through routine screenings.
(§3) IC50 values of the compounds of the present disclosure (including the compounds in Table 1 and the Examples 1-305 compounds) were measured using the Meilun Cell Counting Kit-8 kit from Dalian Meilun Biotech Co., Ltd. Assay details are as follows: tumor cells were seeded in a 96-well plate at a density listed in Table 5. After 24 h, 100 μL of the inoculated cells were treated with 0.5 μL of the compounds of the present disclosure (including the compounds in Table 1 and the Examples 1-305 compounds) at 10 different successively decreasing concentrations (starting at the highest concentration of 10 μM; 5-fold serial dilutions). After the cells were treated with the compounds of the present disclosure for a period of time, the cell viability detection reagent was added to the culture medium for cell viability assessment according to the instructions provided with the CCK-8 kit. […] The growth inhibition of the compounds of the present disclosure on cells was plotted by Prism Graphpad software, and the IC50 values of the compounds of the present disclosure were calculated therefrom.

[3] = test system: MDA-MB-231 cells (human breast adenocarcinoma cells); test: Tumor cell proliferation inhibition, CCK-8; format: cell-based; details: MDA-MB-231 cells, CCK-8, read-out: inhibitory activity (IC50, nM) MDA-MB-231
Method: as §2, §3

[4] = test system: TMD8 cells (human diffuse large B-cell lymphoma cells); test: Tumor cell proliferation inhibition, CCK-8; format: cell-based; details: TMD8 cells, CCK-8, read-out: inhibitory activity (IC50, nM) TMD8
Method: as §2, §3

[5] = test system: MM.1S cells (human multiple myeloma cells); test: Tumor cell proliferation inhibition, CCK-8; format: cell-based; details: MM1.S, MM.1S cells, CCK-8, read-out: inhibitory activity (IC50, nM) MM.1S
Method: as §2, §3

IKZF1 = IKZF1 (Homo sapiens (Human), UniProt Q13422+Q96SW2); test: Western blot, substrate protein expression in hPBMC: IKZF1; format: cell-based; details: for substrate protein remaining % IKZF1: hPBMC, compound 500 nM, 24 hours, Western blot; for concentration at which IKZF1 protein was significantly degraded (Western blot, FIG. 1): hPBMCs
IKZF1, sequence (Q13422 whole entry): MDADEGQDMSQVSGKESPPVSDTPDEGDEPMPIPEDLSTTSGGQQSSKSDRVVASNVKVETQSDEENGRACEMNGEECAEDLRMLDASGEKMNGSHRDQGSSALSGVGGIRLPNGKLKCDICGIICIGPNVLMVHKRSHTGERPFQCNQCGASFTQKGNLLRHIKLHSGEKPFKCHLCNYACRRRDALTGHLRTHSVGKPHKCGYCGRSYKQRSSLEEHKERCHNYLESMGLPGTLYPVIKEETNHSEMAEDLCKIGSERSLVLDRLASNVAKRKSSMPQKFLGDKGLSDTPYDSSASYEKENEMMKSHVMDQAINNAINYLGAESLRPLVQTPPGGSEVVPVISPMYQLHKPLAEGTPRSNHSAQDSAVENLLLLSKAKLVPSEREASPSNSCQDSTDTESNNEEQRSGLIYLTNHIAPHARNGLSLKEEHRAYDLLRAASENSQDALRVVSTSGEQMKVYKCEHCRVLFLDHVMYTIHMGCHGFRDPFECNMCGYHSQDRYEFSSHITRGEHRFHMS
IKZF1, sequence (Q96SW2 whole entry): as the sequence (Q96SW2 whole entry) above
IKZF1, sequence (Q16531 whole entry partner): as the sequence (Q16531 whole entry partner) above
Outline: as §1

human Cereblon WT GST-tagged protein, sequence (Q96SW2 whole entry): as the sequence (Q96SW2 whole entry) above

Row | Compound | IC50 [1] [nM] | IC50 [5] [nM] | substrate protein remaining % GSPT1 (GSPT1) | concentration at which GSPT1 protein was clearly/significantly degraded (Western blot, FIG. 1) (GSPT1) | substrate protein remaining % IKZF3 (IKZF3) | concentration at which IKZF3 protein was significantly degraded (Western blot, FIG. 1) (IKZF3) | IC50 [2] [nM] | IC50 [3] [nM] | IC50 [4] [nM] | substrate protein remaining % IKZF1 (IKZF1) | concentration at which IKZF1 protein was significantly degraded (Western blot, FIG. 1) (IKZF1)
1 | O=C1CCC(N2Cc3cc(CN4CCC(N(c5ccccc5)c5ccccn5)CC4)ccc3C2=O)C(=O)N1 (stereo not drawn) [GT-04525, 3-(1-oxo-5-((4-(phenyl(pyridin-2-yl)amino)piperidin-1-yl)methyl)isoindolin-2-yl)piperidine-2,6-dione] | < 500 | < 1 | A (A represents 0% ≤ substrate protein remaining % ≤ 50%) | below 50 nM | A (A represents 0% ≤ substrate protein remaining % ≤ 50%) | below 50 nM | 1 to 10 | 1 to 10 | 1 to 10 | A (A represents 0% ≤ substrate protein remaining % ≤ 50%) | below 50 nM
2 | O=C1CCC(N2C(=O)c3ccc(CN4CCC(N(c5ccccc5)c5ccccc5)CC4)cc3C2=O)C(=O)N1 (stereo not drawn) [GT-05741, 2-(2,6-dioxopiperidin-3-yl)-5-((4-(diphenylamino)piperidin-1-yl)methyl) isoindoline-1,3-dione] | – | 10 to 50 | A (A represents 0% ≤ substrate protein remaining % ≤ 50%) | – | A (A represents 0% ≤ substrate protein remaining % ≤ 50%) | – | 50 to 100 | 100 to 500 | – | A (A represents 0% ≤ substrate protein remaining % ≤ 50%) | –
3 | O=C1CCC(N2Cc3c(ccc(CN4CCC(N(c5ccccc5)c5ccccn5)CC4)c3F)C2=O)C(=O)N1 (stereo not drawn) [GT-05856, 3-(4-fluoro-1-oxo-5-((4-(phenyl(pyridin-2-yl)amino)piperidin-1-yl)methyl)isoindolin-2-yl)piperidine-2,6-dione] | < 500 | < 1 | A (A represents 0% ≤ substrate protein remaining % ≤ 50%) | below 50 nM | A (A represents 0% ≤ substrate protein remaining % ≤ 50%) | below 50 nM | 1 to 10 | 1 to 10 | 1 to 10 | A (A represents 0% ≤ substrate protein remaining % ≤ 50%) | below 50 nM
4 | O=C1CCC(N2Cc3cc(CN4CCC(N(c5ccccc5)c5ccccc5)CC4)cc(F)c3C2=O)C(=O)N1 (stereo not drawn) [GT-06133, 3-(5-((4-(diphenylamino)piperidin-1-yl)methyl)-7-fluoro-1-oxoisoindolin-2-yl)piperidine-2,6-dione] | < 500 | 10 to 50 | A (A represents 0% ≤ substrate protein remaining % ≤ 50%) | – | B (B represents substrate protein remaining % > 50%) | – | 100 to 500 | 500 to 1000 | – | B (B represents substrate protein remaining % > 50%) | –
5 | O=C1CCC(N2C(=O)c3ccc(C(=O)N4CCN(C(c5cccc(F)c5)c5cccc(F)c5)CC4)cc3C2=O)C(=O)N1 (stereo not drawn) [GT-06206, 5-(4-(bis(3-fluorophenyl)methyl)piperazine-1-carbonyl)-2-(2,6-dioxopiperidin-3-yl) isoindoline-1,3-dione] | 1000 to 1900 | – | A (A represents 0% ≤ substrate protein remaining % ≤ 50%) | – | B (B represents substrate protein remaining % > 50%) | – | – | – | – | B (B represents substrate protein remaining % > 50%) | –
6 | O=C1CCC(N2C(=O)c3ccc(CN4CCN(C(c5cc(F)cc(F)c5)c5cc(F)cc(F)c5)CC4)cc3C2=O)C(=O)N1 (stereo not drawn) [GT-06596, 5-((4-(bis(3,5-difluorophenyl)methyl)piperazin-1-yl)methyl)-2-(2,6-dioxopiperidin-3-yl) isoindoline-1,3-dione] | – | 50 to 100 | A (A represents 0% ≤ substrate protein remaining % ≤ 50%) | – | A (A represents 0% ≤ substrate protein remaining % ≤ 50%) | – | 100 to 500 | 100 to 500 | 500 to 1000 | A (A represents 0% ≤ substrate protein remaining % ≤ 50%) | –

Further lines, with some results ahead:

Row | IC50 [1] [nM] | IC50 [5] [nM] | Compound | substrate protein remaining % GSPT1 (GSPT1) | concentration at which GSPT1 protein was clearly/significantly degraded (Western blot, FIG. 1) (GSPT1) | substrate protein remaining % IKZF3 (IKZF3) | concentration at which IKZF3 protein was significantly degraded (Western blot, FIG. 1) (IKZF3) | IC50 [2] [nM] | IC50 [3] [nM] | IC50 [4] [nM] | substrate protein remaining % IKZF1 (IKZF1) | concentration at which IKZF1 protein was significantly degraded (Western blot, FIG. 1) (IKZF1)
7 | < 500 | 50 to 100 | O=C1CCC(N2Cc3cc(CCN4CCN(C(c5ccccc5)c5ccccc5)CC4)ccc3C2=O)C(=O)N1 (stereo not drawn) [GT-05696, 3-(5-(2-(4-benzhydrylpiperazin-1-yl)ethyl)-1-oxoisoindolin-2-yl)piperidine-2,6-dione] | A (A represents 0% ≤ substrate protein remaining % ≤ 50%) | – | A (A represents 0% ≤ substrate protein remaining % ≤ 50%) | – | – | – | – | A (A represents 0% ≤ substrate protein remaining % ≤ 50%) | –
8 | 500 to 1000 | 50 to 100 | O=C1CCC(N2Cc3cc(CN4CC5CN(C(c6ccccc6)c6ccccc6)CC5C4)c(F)cc3C2=O)C(=O)N1 (stereo not drawn) [GT-06051, 3-(5-((5-benzhydrylhexahydropyrrolo[3,4-c]pyrrol-2 (1H)-yl)methyl)-6-fluoro-1-oxoisoindolin-2-yl)piperidine-2,6-dione] | A (A represents 0% ≤ substrate protein remaining % ≤ 50%) | – | B (B represents substrate protein remaining % > 50%) | – | 100 to 500 | – | – | B (B represents substrate protein remaining % > 50%) | –
9 | < 500 | 10 to 50 | O=C1CCC(N2Cc3cc(C(=O)N4CCN(C(c5ccccc5F)c5ccccc5F)CC4)ccc3C2=O)C(=O)N1 (stereo not drawn) [GT-06104, 3-(5-(4-(bis(2-fluorophenyl)methyl)piperazine-1-carbonyl)-1-oxoisoindolin-2-yl)piperidine-2,6-dione] | A (A represents 0% ≤ substrate protein remaining % ≤ 50%) | – | B (B represents substrate protein remaining % > 50%) | – | 100 to 500 | 500 to 1000 | – | A (A represents 0% ≤ substrate protein remaining % ≤ 50%) | –
10 | – | 50 to 100 | O=C1CCC(N2C(=O)c3ccc(CN4CCN(C(c5cccc(F)c5)c5cccc(F)c5)CC4)cc3C2=O)C(=O)N1 (stereo not drawn) [GT-06118, 5-((4-(bis(3-fluorophenyl)methyl)piperazin-1-yl)methyl)-2-(2,6-dioxopiperidin-3-yl) isoindoline-1,3-dione] | A (A represents 0% ≤ substrate protein remaining % ≤ 50%) | – | A (A represents 0% ≤ substrate protein remaining % ≤ 50%) | – | 100 to 500 | – | 500 to 1000 | A (A represents 0% ≤ substrate protein remaining % ≤ 50%) | –
11 | – | 10 to 50 | O=C1CCC(N2Cc3cc(CN4CCN(C(c5ccc(C(F)(F)F)cc5)c5ccc(C(F)(F)F)cc5)CC4)ccc3C2=O)C(=O)N1 (stereo not drawn) [GT-06199, 3-(5-((4-(bis(4-(trifluoromethyl)phenyl)methyl)piperazin-1-yl)methyl)-1-oxoisoindolin-2-yl)piperidine-2,6-dione] | A (A represents 0% ≤ substrate protein remaining % ≤ 50%) | – | A (A represents 0% ≤ substrate protein remaining % ≤ 50%) | – | – | – | – | A (A represents 0% ≤ substrate protein remaining % ≤ 50%) | –
12 | 500 to 1000 | – | O=C1CCC(N2Cc3cc(CN4CCN(C(c5ccccc5)c5ccc(Br)cc5)CC4)ccc3C2=O)C(=O)N1 (stereo not drawn) [GT-06640, 3-(5-((4-((4-bromophenyl) (phenyl)methyl)piperazin-1-yl)methyl)-1-oxoisoindolin-2-yl)piperidine-2,6-dione] | A (A represents 0% ≤ substrate protein remaining % ≤ 50%) | – | A (A represents 0% ≤ substrate protein remaining % ≤ 50%) | – | – | – | – | A (A represents 0% ≤ substrate protein remaining % ≤ 50%) | –

From patent US20250320193A1, “OXOISOINDOLINYL SUBSTITUTED PIPERIDINEDIONE DERIVATIVE AND USE THEREOF” (GLUETACS THERAPEUTICS (SHANGHAI) CO., LTD., priority 2022, published 2025)
